Measurements as given in patent US12697366B2, “Thermogenic compositions and methods” (Ohio State Innovation Foundation, priority 2016, dated 2026).

System: omental iAb preadipocytes
Test: FD-glucose uptake in human omental iAb preadipocytes
Assay type: cell-based
Conditions: for glucose uptake in preadipocytes from lean insulin-sensitive patients: EREG vs insulin; for glucose uptake in preadipocytes from an insulin resistant patient: different doses of EREG, insulin 10 μg/ml
Procedure: FIGS. 16A to 16M show EREG improves glucose uptake in ob/ob mice and in mouse and human preadipocytes. FIG. 16A: GTT was performed on fasting Veh (open circles) and EREG-treated (closed circles) ob/ob (N=5/group, Study 4) mice (12 hrs) using a single 25% dextrose injection (0.004 mL/g body weight). Asterisks indicate significant differences between Veh- and EREG-treated groups. FIG. 16B: ITT was performed in the same mice groups. […]: Fluorescently-labelled (FD) glucose uptake was measured in mouse […] preadipocytes. FIG. 16C: Preadipocytes were treated with vehicle, insulin (ins), EREG and forskolin for 30 mins. […] Asterisks represent significant differences compared to vehicle (P<0.05). FIG. 16D: Dose dependent increase in FD-glucose uptake by 3T3-L1 preadipocytes stimulated with different EREG concentrations. Data are shown as a percent of Veh-treated control. FIGS. 16E to 16G: FD-glucose uptake was measured in omental iAb preadipocytes isolated from lean (FIG. 16E) and obese insulin-resistant (FIG. 16F, 16G) patients in the presence of insulin, EREG, and forskolin. […] Omental preadipocytes from obese insulin resistant […] (FIG. 16G) and […] (FIG. 16K) were also stimulated with and without EREG in presence and absence of EGFR and MAPK inhibitors for 30 mins. Data were calculated as a percent to non-stimulated control (Veh, 100%, dash line) and shown as a mean±SD. Asterisks represent significant differences compared to vehicle (P<0.05), Mann-Whitney U test. FIG. 16H: FD-glucose uptake was measured in mouse 3T3-L1 preadipocytes with or without EREG (50 ng/mL) and inhibitors of MAPK and PI3K (MAPK-I, 10 uM, and PI3K-I, 200 nM). Data (mean±SD) are shown as percent to control (Veh 100%). […] P<0.05 indicate significant differences between EREG-treated and PI3K-I/EREG treated groups. Asterisks indicate significant differences between vehicle control and treatments with inhibitors. FIG. 16I: Phosphorylated (p-Akt) and non-phosphorylated (total) Akt protein levels were measured in mouse 3T3-L1 preadipocytes stimulated with or without EREG (50 ng/ml), PI3K-I (200 nM) for 20 mins by western blot and quantified by ImageJ Software. […] Asterisks represent significant differences compared to vehicle (P<0.05). FIG. 16J: Plasma insulin levels in fasting Veh and EREG-treated ob/ob mice measured by ELISA. FIG. 16L: Phosphorylated Akt protein levels were measured by western blot in human preadipocytes from an obese person stimulated with or without EREG (50 ng/ml) and PI3K-I (200 nM) for 20 mins. […] Asterisks represent significant differences compared to vehicle (P<0.05). Mann-Whitney U test. FIG. 16M: Schematic depicting two different pathways involved in EREG-mediated induction of thermogenesis and glucose uptake. EREG acts via MAPK to induce leptin secretion and also stimulates hormone sensitive lipase (HSL). HSL hydrolyzes free fatty acids activating PPARα activation. EGF, EGFR inhibition, or MAPK inhibition streamlines EREG-dependent PI3K/Akt activation that increase glucose uptake.
Human stromal vascular fraction (SVF) was isolated from iAb (omental) fat of lean and obese men and women as described before and maintained in preadipocyte culture media (Lonza, Allendale, NJ). Differentiation was carried out for 9-10 days using preadipocyte culture media supplemented with insulin, dexamethasone, IBMX and indomethacin (Lonza, Allendale, NJ).
Glucose uptake assay was performed using glucose uptake cell-based assay kit (Cayman Chemical, Ann Arbor, MI). 3T3-L1 or human preadipocytes were cultured at a density of 5×10^4 per well into a 96-well plate (n=7) in high glucose media and grown overnight. Old cell culture medium was removed the next day and washed with PBS to remove residual glucose. Supplied 2-deoxy-2-[(7-nitro-2,1,3-benzoxadiazol-4-yl)amino]-D-glucose) (2-NBDG) was diluted to 150 μg/mL in DMEM medium without glucose, phenol red, L-glutamine, sodium pyruvate, and HEPES (Life technologies, Grand Island, New York). […]

[1] = insulin resistant patient, EREG with EGFR inhibitor, 30 mins

With insulin: insulin (bovine or human) the “glucose uptake in preadipocytes from lean insulin-sensitive patients” value was “induced similar glucose uptake” and the “glucose uptake in preadipocytes from an insulin resistant patient” value was “not significant”.

In the case of “EREG: Epiregulin, member of the epidermal growth factor family; recombinant mouse or human protein”, the “glucose uptake in preadipocytes from lean insulin-sensitive patients” value is reported as “induced similar glucose uptake”, the “glucose uptake in preadipocytes from an insulin resistant patient” value is reported as “dose-dependent fashion” and the “glucose uptake with inhibition of EGFR, compared to insulin response (100%)” value [1] is reported as 212%. For the same substance, the “glucose uptake with inhibition of EGFR, compared to non-treated preadipocytes (100%)” value [1] was 268%.
